Assay results from the supplement of paper PMC10307832.

Compound: COc1cc(Nc2c(C#N)cnc3cc(OCCCN4CCN(C)CC4)c(OC)cc23)c(Cl)cc1Cl [Bosutinib] + CC(=O)c1c(C)c2cnc(Nc3ccc(N4CCNCC4)cn3)nc2n(C2CCCC2)c1=O [Palbociclib] (partner 0.5 µM)
Assay: relative viability (nuclei count vs DMSO), 5 days (fraction); higher = more cells survive
Procedure, shortened: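 Relative viability divides the nuclei count in treated wells by that in vehicle wells. Lung cancer cell lines were seeded in 1536-well plates, dosed by pin tool the next day, and fixed and stained after 5 days in one step with final 0.05% Triton X-100, 1% formaldehyde and 1 ug/ml Hoechst. Dosing was a single drug or a fixed anchor-drug dose plus five library-drug doses (not always all listed) in √10 steps, and values are medians of duplicate plates imaged at 4×.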

| Cell Line | relative viability (first compound 0.01 µM) | relative viability (first compound 0.03162 µM) | relative viability (first compound 0.1 µM) | relative viability (first compound 1 µM) |
| --- | --- | --- | --- | --- |
| 201T | 0.355 | 0.345 | 0.35 | 0.338 |
| A-427 | 0.585 | 0.496 | 0.504 | 0.523 |
| ABC-1 | 0.864 | 0.72 | 0.759 | 0.612 |
| BEN | 0.449 | 0.444 | 0.493 | 0.447 |
| CAL-12T | 0.488 | 0.493 | 0.396 | 0.117 |
| COR-L23 | 0.275 | 0.366 | 0.22 | 0.322 |
| COR-L 105 | 0.401 | 0.385 | 0.443 | 0.412 |
| ChaGo-K-1 | 0.918 | 0.939 | 0.972 | 0.881 |
| EKVX | 0.39 | 0.367 | 0.373 | 0.314 |
| EMC-BAC-2 | 0.519 | 0.5 | 0.508 | 0.533 |
| EPLC-272H | 0.282 | 0.305 | 0.313 | 0.317 |
| H3255 | 0.322 | 0.306 | 0.323 | 0.319 |
| HARA | 0.339 | 0.293 | 0.243 | 0.171 |
| HCC-15 | 0.763 | 0.71 | 0.699 | 0.63 |
| HCC-44 | 0.985 | 0.967 | 0.964 | 0.865 |
| HCC-78 | 0.457 | 0.425 | 0.506 | 0.435 |
| HCC-366 | 0.423 | 0.365 | 0.375 | 0.247 |
| HCC-827 | 0.439 | 0.473 | 0.469 | 0.196 |
| HOP-62 | 0.378 | 0.487 | 0.473 | 0.447 |
| LC-2-ad | 0.498 | 0.507 | 0.522 | 0.478 |
| LCLC-97TM1 | 0.224 | 0.245 | 0.256 | 0.2 |
| LCLC-103H | 0.497 | 0.498 | 0.452 | 0.491 |
| LK-2 | 0.681 | 0.636 | 0.584 | 0.66 |
| LOU-NH91 | 0.529 | 0.541 | 0.541 | 0.563 |

| Cell Line | relative viability (first compound 0.01 µM) | relative viability (first compound 0.03162 µM) | relative viability (first compound 0.1 µM) | relative viability (first compound 1 µM) |
| --- | --- | --- | --- | --- |
| LU99A | 0.45 | 0.409 | 0.44 | 0.421 |
| LXF-289 | 0.634 | 0.614 | 0.607 | 0.669 |
| NCI-H23 | 0.515 | 0.476 | 0.464 | 0.591 |
| NCI-H322M | 0.523 | 0.452 | 0.492 | 0.414 |
| NCI-H358 | 0.154 | 0.141 | 0.139 | 0.128 |
| NCI-H441 | 0.193 | 0.217 | 0.262 | 0.22 |
| NCI-H460 | 0.165 | 0.173 | 0.148 | 0.0817 |
| NCI-H520 | 0.206 | 0.227 | 0.208 | 0.169 |
| NCI-H522 | 1.07 | 0.93 | 0.996 | 0.8 |
| NCI-H647 | 0.528 | 0.394 | 0.452 | 0.299 |
| NCI-H650 | 0.398 | 0.325 | 0.332 | 0.406 |
| NCI-H661 | 0.392 | 0.398 | 0.434 | 0.363 |
| NCI-H727 | 0.642 | 0.673 | 0.63 | 0.632 |
| NCI-H838 | 0.23 | 0.209 | 0.2 | 0.174 |
| NCI-H1355 | 0.415 | 0.396 | 0.386 | 0.372 |
| NCI-H1395 | 0.595 | 0.539 | 0.643 | 0.48 |
| NCI-H1437 | 0.332 | 0.281 | 0.317 | 0.343 |
| NCI-H1650 | 0.343 | 0.315 | 0.304 | 0.188 |
| NCI-H1651 | 0.506 | 0.535 | 0.507 | 0.534 |
| NCI-H1666 | 0.663 | 0.664 | 0.634 | 0.674 |
| NCI-H1734 | 0.334 | 0.367 | 0.365 | 0.299 |
| NCI-H1755 | 0.435 | 0.456 | 0.433 | 0.469 |
| NCI-H1792 | 0.686 | 0.588 | 0.724 | 0.728 |
| NCI-H1793 | 0.272 | 0.311 | 0.326 | 0.266 |

| Cell Line | relative viability (first compound 0.01 µM) | relative viability (first compound 0.03162 µM) | relative viability (first compound 0.1 µM) | relative viability (first compound 1 µM) |
| --- | --- | --- | --- | --- |
| NCI-H1915 | 0.521 | 0.513 | 0.544 | 0.56 |
| NCI-H1944 | 0.363 | 0.362 | 0.373 | 0.298 |
| NCI-H1975 | 0.572 | 0.638 | 0.625 | 0.516 |
| NCI-H1993 | 0.67 | 0.783 | 0.718 | 0.619 |
| NCI-H2009 | 0.246 | 0.302 | 0.195 | 0.147 |
| NCI-H2023 | 0.373 | 0.368 | 0.387 | 0.297 |
| NCI-H2085 | 0.465 | 0.442 | 0.469 | 0.517 |
| NCI-H2087 | 0.247 | 0.263 | 0.218 | 0.276 |
| NCI-H2126 | 0.324 | 0.322 | 0.351 | 0.359 |
| NCI-H2170 | 0.351 | 0.373 | 0.383 | 0.4 |
| NCI-H2228 | 0.955 | 0.943 | 0.955 | 0.859 |
| NCI-H2347 | 0.499 | 0.425 | 0.432 | 0.453 |
| NCI-H2405 | 0.518 | 0.514 | 0.561 | 0.383 |
| NCI-H3122 | 0.214 | 0.18 | 0.201 | 0.218 |
| PC-3 [JPC-3] | 0.506 | 0.543 | 0.542 | 0.516 |
| PC-14 | 0.566 | 0.482 | 0.32 | 0.0932 |
| RERF-LC-KJ | 0.956 | 1.06 | 1.06 | 1.08 |
| SK-LU-1 | 0.399 | 0.436 | 0.397 | 0.294 |
| SK-MES-1 | 0.329 | 0.327 | 0.326 | 0.295 |
| SW 900 | 0.524 | 0.525 | 0.5 | 0.352 |
| SW 1573 | 0.418 | 0.419 | 0.365 | 0.4 |
| UMC-11 | 0.366 | 0.344 | 0.33 | 0.279 |
